The values below come from patent US20250296938A1, “Compounds that Interact with the Ras Superfamily for the Treatment of Cancers, Inflammatory Diseases, Rasopathies, and Fibrotic Disease” (SHY Therapeutics, LLC, priority 2018, published 2025).

For the first assay, the system named is HRas wild type. In words: Ras GTP binding domain inhibition assay (Cy3-GTP/Cy5-GTP competition). Also noted: species or system human. Particulars: at 20 μM, with SOS. The essentials: (§1)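 First, His-tagged protein is coated on nickel wells overnight at 4 °C. Next, compound (20 μM single point or serial dilution) is added for 3 h at room temperature, with or without Sos exchange factor in the last hour. Finally, 100 nM labelled GTP binds for 45 min and retained signal is measured.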
Regarding `Cn1ccc(-c2sc3nc(-c4nccn4C)nc(N[C@H]4C[C@@H](O)C4)c3c2-c2ccccc2)n1` [drawing 1043], the “HRAS wild type + SOS: % inh.” value is “A (1-25% inhibition)”.

For the molecule `CO[C@H]1CC[C@@H](Nc2nc(-c3nccn3C)nc3sc(-c4ccn(C(C)C)n4)c(C)c23)C1` [drawing 1054], the “HRAS wild type + SOS: % inh.” value was “D (76-100% inhibition)”.

The same assay, now with this note: at 20 μM, without SOS.
For the molecule `Cn1ccc(-c2sc3nc(-c4nccn4C)nc(N[C@H]4C[C@@H](O)C4)c3c2-c2ccccc2)n1` [drawing 1043], the “HRas wild type % inh.” value is recorded as “C (51-75% inhibition)”.

Turning to `CO[C@H]1CC[C@@H](Nc2nc(-c3nccn3C)nc3sc(-c4ccn(C(C)C)n4)c(C)c23)C1` [drawing 1054], the “HRas wild type % inh.” value is “C (51-75% inhibition)”.

A further assay has as its system MAPK phosphorylation. The assay is described as follows: Western MAPK cell-based phosphorylation assay, MIA PaCa-2. The note with it: Homo sapiens, 10 μM, 6 hours, EGF stimulation. The protocol:
(§2) Cell lines: Human NSCLC cells NCI-H1975 and NCI-H1299, and tumor-derived pancreatic cancer cell lines Panc-1, MIA-PaCa-2, and BxPC3, were all purchased from American Type Culture Collection and grown in complete RPMI medium (BxPC3, NCI-H1975 and NCI-H1299) or DMEM-High Glucose (Panc1 and MIA-PaCa-2), supplemented with penicillin (100 U/mL), streptomycin (100 μg/mL), and 10% heat-inactivated FBS at 37° C. in a humidified incubator with 5% CO2.
(§3) Method: Cells were plated at 350000 cells/well density in a 12-well plate, allowed 3 hours to adhere to the plate, then starved in the appropriate medium in the presence of 0.5% FBS overnight. The small molecules to be tested were added to the cells in the final concentration of 10 μM in the presence of 0.3% DMSO for 6 hours incubation at 37° C. For IC50 value determination, serial dilutions of compounds were added to cells under the same conditions. Next, cells were stimulated with 1.5 ng/ml EGF for 15 minutes then cells were lysed with lysis buffer containing 1% Triton X-100, EDTA, and Halt™ Protease & Phosphatase Inhibitor Cocktail (Thermo Scientific). Protein concentration was assessed by BCA protein assay (Thermo Scientific). Phosphorylation level of MAPK was determined by western blot.
(§4) Western blot protocol: Equal amounts of protein (15-50 μg) were separated by SDS-PAGE and transferred to nitrocellulose membranes (Invitrogen by Thermo Fisher Scientific). The membrane was stained with Ponceau S Stain (Boston BioProducts) to verify uniform protein loading. Membranes were blocked with 10% milk and phosphorylation levels of MAPK were assessed by incubating overnight at 4° C. with anti-phospho-p44/42 (Thr202/Tyr204) antibody (Cell Signaling) followed by HRP-conjugated secondary antibody (Jackson Immunoresearch, West Grove, PA). Bands were incubated in Amersham ECL Prime Western Blotting Detection Reagent (GE Healthcare) and visualized using the ChemiDoc MP imaging system (Bio-Rad).
Regarding `COCC(C)Nc1nc(-c2nccn2C)nc2sc(-c3ccccc3Cl)c(-c3cscn3)c12` (stereo not shown) [drawing 414], the inhibition at 10 µM was 76 to 100%.

`COCC(C)Nc1nc(-c2nccn2C)nc2sc(-c3cccc(OC)c3)c(-c3cscn3)c12` (stereo not shown) [drawing 416]: the inhibition at 10 µM lay in the range of 26 to 50%.

`COCCNc1nc(-c2nccn2C)nc2sc(-c3cc(OC)ccc3Cl)c(-c3ccc(OC)cc3)c12` [drawing 421] yielded an inhibition at 10 µM of 0%.

With `COCCNc1nc(-c2nccn2C)nc2sc(-c3cc(OC)ccc3Cl)c(-c3ccccc3)c12` [drawing 426], the inhibition at 10 µM is 76 to 100%.

In a further assay the test system is MIA PaCa-2 pancreatic cancer cell line. The assay is described as follows: Cell proliferation assay (DAPI). The class given is cell-based. Particulars: Homo sapiens, MIA PaCa-2. An outline of the steps:
(§5)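 After 2–4 days' exposure at 37 °C to 10 µM compound or serial dilutions (IC50), in 0.3% DMSO with 10% FBS, cells were acetone–methanol fixed and DAPI-stained for total DNA, read at 358 nm ex/461 nm em. Media: RPMI for NCI-H1975 and BxPC3, DMEM-high glucose for PANC-1 and MIA PaCa-2.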
For `COCCNc1nc(-c2nccn2C)nc2sc(-c3ccccc3Cl)c(-c3ccc(OC)cc3)c12` [drawing 560], the IC50 (usually the concentration that inhibits the measured activity by half) was over 1 µM.

`COCCNc1nc(-c2nccn2C)nc2sc(-c3cccc(OC)c3)c(-c3ccc(OC)cc3)c12` [drawing 561] gave an IC50 of over 1 µM.

The same assay, now with this note: Homo sapiens; 10 μM, 2-4 days, MIA PaCa-2; read-out: % Inhibition of cell proliferation, MIA PaCa-2 % inh.
For the molecule `COCCNc1nc(-c2nccn2C)nc2sc(-c3ccccc3Cl)c(-c3ccc(OC)cc3)c12` [drawing 560], the inhibition at 10 µM lay in the range of 76 to 100%.

In the case of `COCCNc1nc(-c2nccn2C)nc2sc(-c3cccc(OC)c3)c(-c3ccc(OC)cc3)c12` [drawing 561], the inhibition at 10 µM was 76 to 100%.

A further assay relates to NCI H1975 non-small-cell lung cancer cell line. The assay is described as follows: Cell proliferation assay (DAPI). Particulars: Homo sapiens. The format is cell-based. The essentials:
as §5
For `COCCNc1nc(-c2nccn2C)nc2sc(-c3ccccc3Cl)c(-c3ccc(OC)cc3)c12` [drawing 560], the IC50 is 0.75 to 1 µM.

`COCCNc1nc(-c2nccn2C)nc2sc(-c3cccc(OC)c3)c(-c3ccc(OC)cc3)c12` [drawing 561]: the IC50 was over 1 µM.

Another assay concerns MAPK phosphorylation. In words: MAPK cell-based phosphorylation assay (ELISA or Western), PANC-1. The note with it: Homo sapiens; 10 μM, 6 hours, EGF stimulation, PANC-1. An outline of the steps:
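Serum-starved (0.5% FBS overnight) cells given compound at 10 μM or serial dilutions (0.3% DMSO) for 6 h at 37 °C, then 1.5 ng/mL EGF for 15 min. Phospho-MAPK read by fixed-cell ELISA (fluorescence, 595 nm) or by Western blot of lysates with anti-phospho-p44/42 (Thr202/Tyr204).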
(In general: ELISA stands for enzyme-linked immunosorbent assay.)
In the case of `COCC(C)Nc1nc(-c2nccn2C)nc2sc(-c3ccccc3Cl)c(-c3cscn3)c12` (stereo not shown) [drawing 414], the inhibition at 10 µM was in the range of 76 to 100%.

Consider `COCC(C)Nc1nc(-c2nccn2C)nc2sc(-c3cccc(OC)c3)c(-c3cscn3)c12` (stereo not shown) [drawing 416], for which the inhibition at 10 µM lay within 76 to 100%.

With `COCCNc1nc(-c2nccn2C)nc2sc(-c3cc(OC)ccc3Cl)c(-c3ccc(OC)cc3)c12` [drawing 421], the inhibition at 10 µM is 51 to 75%.

`COCCNc1nc(-c2nccn2C)nc2sc(-c3cc(OC)ccc3Cl)c(-c3ccccc3)c12` [drawing 426]: the inhibition at 10 µM was 51 to 75%.

Another assay concerns MAPK phosphorylation. The assay is described as follows: Western MAPK cell-based phosphorylation assay, BxPC3. The note with it: Homo sapiens, BXPC-3, 10 μM, 6 hours, EGF stimulation. The protocol:
as §2, §3, §4
In turn, `COCC(C)Nc1nc(-c2nccn2C)nc2sc(-c3ccccc3Cl)c(-c3cscn3)c12` (stereo not shown) [drawing 414] had an inhibition at 10 µM of 26 to 50%.

For the molecule `COCC(C)Nc1nc(-c2nccn2C)nc2sc(-c3cccc(OC)c3)c(-c3cscn3)c12` (stereo not shown) [drawing 416], the inhibition at 10 µM was 76 to 100%.

Molecule `COCCNc1nc(-c2nccn2C)nc2sc(-c3cc(OC)ccc3Cl)c(-c3ccc(OC)cc3)c12` [drawing 421] displayed an inhibition at 10 µM of 0%.

Take `COCCNc1nc(-c2nccn2C)nc2sc(-c3cc(OC)ccc3Cl)c(-c3ccccc3)c12` [drawing 426]: the inhibition at 10 µM was in the range of 26 to 50%.

In another assay the test system is AKT phosphorylation. The assay is described as follows: Western AKT cell-based phosphorylation assay, PANC-1. Particulars: Homo sapiens, 6 hours, EGF stimulation, PANC-1. An outline of the steps:
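PANC-1 cells, serum-starved overnight in 0.5% FBS, were treated with compound at 10 μM (0.3% DMSO) for 6 h at 37 °C and then stimulated with 1.5 ng/ml EGF for 15 min. Lysates (15–50 μg) were immunoblotted for phospho-Akt Ser473, with ECL detection.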
As for `COCC(C)Nc1nc(-c2nccn2C)nc2sc(-c3ccccc3Cl)c(-c3cscn3)c12` (stereo not shown) [drawing 414], the inhibition at 10 µM worked out at 0%.

Molecule `COCC(C)Nc1nc(-c2nccn2C)nc2sc(-c3cccc(OC)c3)c(-c3cscn3)c12` (stereo not shown) [drawing 416] yielded an inhibition at 10 µM of 0%.

In turn, `COCCNc1nc(-c2nccn2C)nc2sc(-c3cc(OC)ccc3Cl)c(-c3ccc(OC)cc3)c12` [drawing 421] gave an inhibition at 10 µM of 0%.

The next assay addresses T1, KRas G12D mutant (Homo sapiens, UniProt P01116, G12D).
T1 construct: fused on or other part: His tag, used for capture on nickel-coated plates
The assay is described as follows: Ras GTP binding domain inhibition assay (Cy3-GTP/Cy5-GTP competition). Particulars: at 20 μM, with SOS; read-out: KRas G12D mutant + SOS: % inh. The essentials: as §1
With `Cn1ccc(-c2sc3nc(-c4nccn4C)nc(N[C@H]4C[C@@H](O)C4)c3c2-c2ccccc2)n1` [drawing 1043], the inhibition at 20 µM came to 0%.

For the molecule `CO[C@H]1CC[C@@H](Nc2nc(-c3nccn3C)nc3sc(-c4ccn(C(C)C)n4)c(C)c23)C1` [drawing 1054], the inhibition at 20 µM is 51 to 75%.

Still in this assay, the particulars now being: at 20 μM, without SOS; read-out: KRas G12D mutant: % inh.
With `Cn1ccc(-c2sc3nc(-c4nccn4C)nc(N[C@H]4C[C@@H](O)C4)c3c2-c2ccccc2)n1` [drawing 1043], the inhibition at 20 µM turned out to be 0%.

As for `CO[C@H]1CC[C@@H](Nc2nc(-c3nccn3C)nc3sc(-c4ccn(C(C)C)n4)c(C)c23)C1` [drawing 1054], the inhibition at 20 µM fell in the range of 51 to 75%.

The target in another assay is Rho-A (Homo sapiens, UniProt P61586). The description is as above. The note with it: with SOS, read-out: Rho-A + SOS: % inh. An outline of the steps:
as §1
In the case of `Cn1ccc(-c2sc3nc(-c4nccn4C)nc(N[C@H]4C[C@@H](O)C4)c3c2-c2ccccc2)n1` [drawing 1043], the inhibition at 20 µM was in the range of 26 to 50%.

In the case of `CO[C@H]1CC[C@@H](Nc2nc(-c3nccn3C)nc3sc(-c4ccn(C(C)C)n4)c(C)c23)C1` [drawing 1054], the inhibition at 20 µM is 76 to 100%.

The same assay, now with this note: without SOS, read-out: Rho-A: % inh.
As to `Cn1ccc(-c2sc3nc(-c4nccn4C)nc(N[C@H]4C[C@@H](O)C4)c3c2-c2ccccc2)n1` [drawing 1043], the inhibition at 20 µM lay within 26 to 50%.

On to `CO[C@H]1CC[C@@H](Nc2nc(-c3nccn3C)nc3sc(-c4ccn(C(C)C)n4)c(C)c23)C1` [drawing 1054], for which the inhibition at 20 µM was in the range of 76 to 100%.

Another assay concerns the target Rac-1 (Homo sapiens, UniProt P63000). The assay is described as above. Particulars: with SOS, read-out: Rac-1 + SOS: % inh. An outline of the steps: as §1
On to `Cn1ccc(-c2sc3nc(-c4nccn4C)nc(N[C@H]4C[C@@H](O)C4)c3c2-c2ccccc2)n1` [drawing 1043], for which the inhibition at 20 µM was 1 to 25%.

For `CO[C@H]1CC[C@@H](Nc2nc(-c3nccn3C)nc3sc(-c4ccn(C(C)C)n4)c(C)c23)C1` [drawing 1054], the inhibition at 20 µM was 51 to 75%.

Staying with this assay, now noted: without SOS, read-out: Rac-1: % inh.
Take `Cn1ccc(-c2sc3nc(-c4nccn4C)nc(N[C@H]4C[C@@H](O)C4)c3c2-c2ccccc2)n1` [drawing 1043]: the inhibition at 20 µM was 1 to 25%.

As for `CO[C@H]1CC[C@@H](Nc2nc(-c3nccn3C)nc3sc(-c4ccn(C(C)C)n4)c(C)c23)C1` [drawing 1054], the inhibition at 20 µM lay in the range of 51 to 75%.
